# From US20240226036A1 (Toragen, Inc., priority 2021, published 2024)
# Where two headings read alike, the source gives them in different places.
# How the values were obtained:
# [1] = system: T cells; experiment: Proliferation of T cells; type: cell-based
# [2] = system: AT-84-E7 tumors; type: in vivo, mouse; conditions: tumors which do not express E5
# [3] = system: 4T1 tumor cells; experiment: 4T1 tumor model in mice; type: in vivo, mouse; conditions: 10 mg/kg IP once daily, 7 injections starting on day 6
# [4] = system: cell lines engineered to express HPV16 E5; experiment: Cell cycle arrest in cell lines engineered to express HPV16 E5; type: cell-based, murine and human
# Method: (§1) Cell cycle progression was analyzed on the basis of BrdU incorporation following […] cell staining with BrdU-APC and 7-AAD using BD Pharmingen BrdU Flow Kit. (BD, Franklin Lakes, NJ) according to the manufacture's protocol. Cells are analyzed using flow cytometry. Cell proliferation is assessed by using MTT [3-(4,5-dimethylthiazol-2-yl)-2,5-diphenyltetrazolium bromide]. First, cells are seeded in 96-well plate and cultured for 2-3 days. Next, culture media is replaced with fresh media containing 0.5 mg/ml of MTT (Sigma) and the plates are incubated for 4 hours at 37° C. Then, purple formazan crystals are dissolved in lysis buffer (4 mM HCl and 0.1% NP-40 in isopropanol) and the absorbance is recorded on a TECAN infiniteM200 microplate reader (Tecan, Mannedorf, Switzerland) at a wavelength of 570 nm with absorbance at 650 nm as reference.
# [5] = system: E5-positive AT-84-E7; experiment: Cell surface expression of MHC I (flow cytometry); type: cell-based
# [6] = system: B16-OVA cells cocultured with B3Z cells; experiment: B3Z activation assay; type: cell-based; conditions: 100 μM, 24 hours before B3Z co-culture
# Method: B16-OVA cells are seeded into a 96-well plate and treated with 100 μM […], […] or racemic rimantadine for 24 hours, prior to addition of B3Z cells. After 24 hours of co-culture, medium is removed and 100 μl of lysis buffer [0.155 mM chlorophenol red β-D-galactopyranoside (CPRG) (Roche), 0.125% Nonidet P-40 Alternative (EMDCalbiochem), and 9 mM MgCl2 (Sigma) in PBS] are added. After incubation for 4 hours at 37° C., the absorbance at 570 nm is determined on a TECAN infinite M200 microplate reader.
# [7] = system: B16-OVA tumor cells; experiment: B16-OVA tumor model in mice; type: in vivo, mouse; conditions: for tumor sizes compared to control groups: 10 mg/kg IP once daily, 7 injections starting on day 10; for survival: with anti-PDL1 immunotherapy, mice harboring B16-OVA tumors
# [8] = system: Stathmin; experiment: RTqPCR gene expression of cell cycle proteins; type: cell-based
# Method: (§2) Total RNA is extracted using TRIzol Reagent (Invitrogen) and reverse transcribed with qScript cDNA Synthesis Kit (Quanta BioSciences, Beverly, MA) according to the manufacturer's instructions. Quantitative PCR analysis is conducted by using KAPA SYBR […] FAST (KAPA Biosystems, Wilmington, MA) on the 7900HT Fast Real-Time PCR System (Applied Biosystems, Foster City, CA).
# [9] = system: Tau; experiment: RTqPCR gene expression of cell cycle proteins; type: cell-based
# Method: as §2
# [10] = system: glutamate, GABA, dopamine receptors
# Excerpt: Next, a series of SPECT analyses as described in Schramm, N., et al. (2000).
# The SPECT analyses comprise of treatment of the mice with radioligands specific to each receptor. For example, [^123I] IBZM has been documented to have a high affinity for the D2/3 dopamine receptor.
# [11] = biological target: M2 channel pore (Influenza A virus, UniProt P06821); conditions: one study; other studies found no difference; cited from earlier work
# M2 channel pore, sequence (P06821 whole entry): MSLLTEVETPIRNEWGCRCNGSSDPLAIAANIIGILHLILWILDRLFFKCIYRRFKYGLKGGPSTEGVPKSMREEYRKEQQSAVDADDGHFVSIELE
# [12] = system: D2/3 dopamine receptor; conditions: documented; cited from earlier work
# [13] = system: CAL-27 cells; experiment: Example 6 proliferation in vitro (MTT); type: cell-based, human; conditions: 0-500 μM, 24 or 48 hours
# Method: On day 1, CAL-27 cells were seeded in a 96-well plate (2-4×10^3 cells/well, medium 100 μl/well) and left overnight to allow the cells to attach to the plate. On day 2, varying concentrations of rimantadine (0 μM, 100 μM, 250 μM, or 500 μM) were added to the cells and allowed to incubate for 24 hours or 48 hours. On either day 3 or 4, the culture media was aspirated, and 100 μl/well of MTT solution (comprising an MTT concentration of 0.5 mg/ml; formed by dilution of thiazolyl blue tetrazolium bromide solution (SIGMA, Cat #M2128) with stock solution (5 mg/ml in PBS (−20° C.)) was added to the culture media. The cells were incubated in a CO2 incubator at 37° C. for 3 hours, and the MTT solution was aspirated. 100 μl/well of DMSO was then added and the cells were incubated for about 5 minutes. A OD570 nm (Ref 650 nm) was then read. Results of the experiment are shown in FIG. 2.
# [14] = biological target: NR1/NR2B ionotropic receptor (Homo sapiens, UniProt Q05586+Q13224); experiment: ScreenPatch assay (IonWorks Barracuda electrophysiology) on NR1/NR2B; conditions: refers to Table 2
# NR1/NR2B ionotropic receptor, sequence (Q13224 27-1484, other chains not shown): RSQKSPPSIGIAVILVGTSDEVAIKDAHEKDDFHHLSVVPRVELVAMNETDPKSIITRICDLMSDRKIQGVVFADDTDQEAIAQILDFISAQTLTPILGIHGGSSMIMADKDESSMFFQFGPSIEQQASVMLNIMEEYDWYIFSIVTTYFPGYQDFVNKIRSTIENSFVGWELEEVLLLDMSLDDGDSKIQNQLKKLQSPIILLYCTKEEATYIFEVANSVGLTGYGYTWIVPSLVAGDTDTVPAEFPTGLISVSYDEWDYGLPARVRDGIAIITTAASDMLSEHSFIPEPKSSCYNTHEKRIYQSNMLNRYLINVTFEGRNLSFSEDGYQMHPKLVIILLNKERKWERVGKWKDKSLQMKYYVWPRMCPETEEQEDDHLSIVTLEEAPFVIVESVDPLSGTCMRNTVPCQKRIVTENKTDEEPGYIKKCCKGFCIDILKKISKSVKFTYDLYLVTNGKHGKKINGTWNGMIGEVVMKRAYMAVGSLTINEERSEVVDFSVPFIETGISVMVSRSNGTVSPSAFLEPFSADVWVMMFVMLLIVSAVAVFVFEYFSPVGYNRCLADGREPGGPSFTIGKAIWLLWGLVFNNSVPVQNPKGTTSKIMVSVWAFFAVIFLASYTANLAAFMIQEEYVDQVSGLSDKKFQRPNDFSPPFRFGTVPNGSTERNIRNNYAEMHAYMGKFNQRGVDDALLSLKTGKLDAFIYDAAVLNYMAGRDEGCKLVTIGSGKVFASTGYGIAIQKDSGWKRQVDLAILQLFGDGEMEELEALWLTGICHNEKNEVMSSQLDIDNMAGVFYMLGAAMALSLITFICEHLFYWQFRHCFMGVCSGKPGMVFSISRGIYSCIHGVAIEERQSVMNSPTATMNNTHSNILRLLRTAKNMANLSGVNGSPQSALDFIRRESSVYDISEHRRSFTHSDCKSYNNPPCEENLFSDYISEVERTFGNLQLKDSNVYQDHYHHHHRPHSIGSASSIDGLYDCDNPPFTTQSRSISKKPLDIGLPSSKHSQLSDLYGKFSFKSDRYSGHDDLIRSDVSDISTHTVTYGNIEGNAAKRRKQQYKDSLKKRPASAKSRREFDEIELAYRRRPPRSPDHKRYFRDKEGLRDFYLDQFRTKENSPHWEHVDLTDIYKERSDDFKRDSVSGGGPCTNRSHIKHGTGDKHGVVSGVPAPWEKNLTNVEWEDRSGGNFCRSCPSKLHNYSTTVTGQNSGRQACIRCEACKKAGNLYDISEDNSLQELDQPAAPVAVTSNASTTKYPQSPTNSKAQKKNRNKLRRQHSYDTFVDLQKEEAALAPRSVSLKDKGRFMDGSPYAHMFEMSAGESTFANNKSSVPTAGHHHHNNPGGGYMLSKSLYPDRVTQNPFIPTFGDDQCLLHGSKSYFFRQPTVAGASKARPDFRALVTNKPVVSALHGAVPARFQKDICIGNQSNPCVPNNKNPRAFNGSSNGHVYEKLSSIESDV
# [15] = system: CAL-27, CAL-33, and SCC-47 squamous cell carcinoma cell lines; experiment: BrdU incorporation assays in human head and neck tumor lines; type: cell-based; conditions: rimantadine alone; CAL-27, CAL-33, SCC-47
# Method: as §1
# [16] = system: CAL-27, CAL-33, and SCC-47 squamous cell carcinoma cell lines; experiment: Proliferation assays in human head and neck tumor lines; type: cell-based; conditions: rimantadine alone; CAL-27, CAL-33, SCC-47
# Method: as §1
# [17] = system: NMDA receptors; experiment: ScreenPatch two-application protocol, agonist and antagonist format; type: cell-based, human; conditions: first application; data not shown
# Method: A two-application protocol was employed.
# Agonist Format: The potential agonist effect of the test articles and the positive control antagonist, amantadine, were examined during first application.
# To access open channel block type of inhibition, peak and steady state current amplitudes (between 4th and 5th seconds after agonist application) were measured (PCA and SSC respectively).
SMILES,proliferation of T cells [1],anti-tumor effect [2],tumor sizes compared to control groups [3],cell cycle arrest [4],cell surface expression of MHC I [5],increase in recognition of model tumor antigen by B3Z cells [6] [fold],tumor sizes compared to control groups [7],survival [7],gene expression of Stathmin [8],gene expression of Tau [9],also measured
C[C@@H](N)C12CC3CC(CC(C3)C1)C2 [2-R rimantadine],no significant effects,decreased,statistically significant decreases,induce cell cycle arrest,restored,3,statistically significant decreases,significant improvement,significant decreases,Decreases,"incidence of central nervous system adverse effects, compared with the other enantiomer ([10]; Example 4): higher incidence; affinity for M2 channel pore compared with the S-enantiomer [11]: greater affinity"
CCN1CCC[C@H]1CNC(=O)c1c(OC)ccc([123I])c1O [[^123I] IBZM],,,,,,,,,,,affinity for the D2/3 dopamine receptor [12]: high affinity
C[C@H](N)C12CC3CC(CC(C3)C1)C2 [2-S rimantadine],no significant effects,decreased,statistically significant decreases,induce cell cycle arrest,restored,3,statistically significant decreases,significant improvement,significant decreases,Decreases,"cancer cell proliferation as compared to R-rimantadine or racemic rimantadine [13]: enhanced or equivalent; inhibition of NR2B subunits as compared to 2-R rimantadine and racemic rimantadine [14]: to a lesser degree; toxicity as a treatment for cancer as compared to 2-R rimantadine ([10]; Example 4): significantly less toxic; incidence of central nervous system adverse effects, compared with the other enantiomer ([10]; Example 5): higher incidence; toxicity as a treatment for cancer as compared to 2-R rimantadine ([10]; Example 5): significantly less toxic"
CC(N)C12CC3CC(CC(C3)C1)C2 (stereo not shown) [rimantadine],,,,,,,,,,,cell cycle arrest [15]: Significant cell cycle arrest; proliferation [16]: decreased
"NC12CC3CC(CC(C3)C1)C2 [Amantadine, amantadine]",,,,,,,,,,,agonist effect: activation of NMDA receptors [17]: Neither test articles nor amantadine had produced significant activation
